Format in all cases: cell-based
The test system of experiment [1] is human alveolar epithelial cells (A549). Description: Electrical resistance of A549 alveolar epithelial cells on gold microelectrodes. The conditions noted are these: HGF 100 ng/mL; sphingosine 1-phosphate 1 μM. As to the method: FIGS. 1A-1D depict HGF-mediated increases in human transendothelial electrical resistance (TER). FIG. 1A: Human pulmonary artery endothelial cells were grown to confluence on gelatinized gold microelectrodes. Two hours prior to TER measurement, growth medium was replaced with serum-free M199. Serial-diluted HGF was added to cells at indicated concentrations and TER monitored for 2.5 hr. […] The result shown is a representative TER tracing of three independent experiments. FIG. 1B: Similar to FIG. 1A, human alveolar epithelial cells (A549) were grown on gold microelectrodes and challenged with vehicle, HGF, (100 ng/mL) or sphingosine 1-phosphate (1 μM). […]
Electrical resistance of EC monolayers was measured using electrical cell impedance sensor system (Applied Biophysics Inc., Troy, N.Y.) as described in Garcia, J. G. N. et al. (2000) J. Appl. […] Cells grown on gold microelectrodes (10^−3 cm^2) in polycarbonate wells act as insulating particles, and the resistance across the monolayers (transendothelial electrical resistance, or TER) is measured in real time. […] The in-phase and out-of-phase voltages between the electrodes were monitored in real time with the lock-in amplifier and converted to scalar measurements of transendothelial impedance, of which resistance was the primary focus. […]

In experiment [2] the test system is Human pulmonary artery endothelial cells. Description: Transendothelial electrical resistance (TER) of human pulmonary artery endothelial cell monolayers. As to conditions: HGF 100 ng/ml; baseline TER ~1600 Ω.
A further experiment concerns human endothelial cells. Description: β-catenin immunofluorescent microscopy. As to conditions: HGF-stimulated cells. On the procedure: Endothelial cell monolayers grown on gelatinized cover slips were rinsed with M199 and incubated with agonists in the same medium in a 37° C. incubator (5% CO2). Monolayers were then rinsed with PBS (3×2 min), fixed in 4% paraformaldehyde for 10 min, again rinsed with PBS (3×2 min), and permeabilized with 0.25% Triton X-100 for 5 min. Cells were then washed briefly with PBS (3×2 min), blocked with PBS containing 2% BSA for 30 min and incubated with 1 Unit/mL of Texas Red-X phalloidin (Molecular Probes, Eugene, Oreg.), β-catenin antibody (Transduction Laboratories, Lexington, Ky.), glycogen synthase kinase-3 β (GSK-3β) (Santa Cruz Biotechnology, Inc., Santa Cruz, Calif.), or mono-phosphorylated MLC antisera (see Garcia, J. G. N. et al. (2001) J. Clin. Invest. 108:689-711) for 1 hr. After washing with PBS (3×2 min), cover slips were mounted on slides using SlowFade mounting medium (Molecular Probes). Cells were analyzed using a 60× oil objective on a Nikon Eclipse TE 300 microscope. Images were captured by Sony Digital Photo camera DKC 5000. The same exposure time was applied to all samples within one experiment. […]

Entries after “also recorded” stand apart in the source; their conditions may differ.

“HGF: heparin-binding glycoprotein, multifunctional cytokine, ligand of c-Met; purchased from R&D Systems”: the “effect on electrical resistance of epithelial cells” value in experiment [1] is on record as “did not alter TER values; also recorded: completely without effect”. Besides, in experiment [2], the “peak TER” value is recorded as ~2400 Ω. Further, the β-catenin immunoreactivity entry in the experiment with human endothelial cells is given as “increased β-catenin immunoreactivity along cell borders”.

(Values after patent US20050004029A1, “Methods and compositions for treating vascular leak using hepatocyte growth factor” (priority 2001, published 2005).)
